# Data: patent US12428394B2, “2,4-disubstituted pyrimidine derivative, preparation method therefor and use thereof” (CHENGDU ZENITAR BIOMEDICAL TECHNOLOGY CO., LTD., priority 2019, dated 2025)
# Read-outs that look alike come from different tables or passages of the source.
# Experiments:
# FLT3 = biological target: T1, FLT3 (Homo sapiens, UniProt P36888); test: In vitro kinase activity experiment, FLT3; type: biochemical
# T1 construct: purchased Eurofins
# T1 sequence (P36888 27-993): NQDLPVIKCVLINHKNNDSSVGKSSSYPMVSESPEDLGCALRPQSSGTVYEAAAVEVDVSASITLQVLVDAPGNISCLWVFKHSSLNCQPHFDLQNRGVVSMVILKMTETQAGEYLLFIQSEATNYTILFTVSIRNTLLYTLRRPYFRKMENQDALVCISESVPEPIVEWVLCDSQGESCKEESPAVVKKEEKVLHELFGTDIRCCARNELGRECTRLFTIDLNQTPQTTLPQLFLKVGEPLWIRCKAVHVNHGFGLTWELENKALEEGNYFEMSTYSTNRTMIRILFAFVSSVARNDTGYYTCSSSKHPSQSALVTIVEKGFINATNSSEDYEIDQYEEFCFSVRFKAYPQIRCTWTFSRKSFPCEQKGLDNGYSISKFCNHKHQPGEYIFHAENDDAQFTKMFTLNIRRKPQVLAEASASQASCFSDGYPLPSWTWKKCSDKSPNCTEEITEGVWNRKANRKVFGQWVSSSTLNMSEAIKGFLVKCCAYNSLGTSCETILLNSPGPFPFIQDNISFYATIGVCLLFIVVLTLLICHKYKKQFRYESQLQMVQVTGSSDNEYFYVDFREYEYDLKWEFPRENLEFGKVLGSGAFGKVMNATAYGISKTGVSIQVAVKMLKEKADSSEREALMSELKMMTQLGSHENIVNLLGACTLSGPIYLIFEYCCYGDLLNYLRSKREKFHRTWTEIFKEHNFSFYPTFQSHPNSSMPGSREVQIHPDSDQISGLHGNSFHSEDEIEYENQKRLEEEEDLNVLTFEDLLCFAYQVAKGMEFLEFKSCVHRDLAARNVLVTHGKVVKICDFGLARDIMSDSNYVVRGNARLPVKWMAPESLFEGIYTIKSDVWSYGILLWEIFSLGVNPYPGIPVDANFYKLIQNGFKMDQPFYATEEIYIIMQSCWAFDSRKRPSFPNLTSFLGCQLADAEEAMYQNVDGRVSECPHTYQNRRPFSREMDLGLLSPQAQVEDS
# Procedure, shortened: (§1)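 Radiometric filter-binding assay: kinase, its substrate and compound in 8 mM MOPS pH 7.0, 0.2 mM EDTA, 10 mM MnCl2, with 10 mM magnesium acetate and γ33P-ATP; MgATP started the reaction, 40 min at room temperature. Stopped with 3% phosphate, spotted on Filtermat A, washed, scintillation counted.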
# JAK2 = biological target: T2, JAK2 (Homo sapiens, UniProt O60674); test: In vitro kinase activity experiment, JAK2; type: biochemical; conditions: inhibition rate of enzyme at 500 nM; measured by Eurofins
# T2 construct: purchased Eurofins
# T2 sequence (O60674 whole entry): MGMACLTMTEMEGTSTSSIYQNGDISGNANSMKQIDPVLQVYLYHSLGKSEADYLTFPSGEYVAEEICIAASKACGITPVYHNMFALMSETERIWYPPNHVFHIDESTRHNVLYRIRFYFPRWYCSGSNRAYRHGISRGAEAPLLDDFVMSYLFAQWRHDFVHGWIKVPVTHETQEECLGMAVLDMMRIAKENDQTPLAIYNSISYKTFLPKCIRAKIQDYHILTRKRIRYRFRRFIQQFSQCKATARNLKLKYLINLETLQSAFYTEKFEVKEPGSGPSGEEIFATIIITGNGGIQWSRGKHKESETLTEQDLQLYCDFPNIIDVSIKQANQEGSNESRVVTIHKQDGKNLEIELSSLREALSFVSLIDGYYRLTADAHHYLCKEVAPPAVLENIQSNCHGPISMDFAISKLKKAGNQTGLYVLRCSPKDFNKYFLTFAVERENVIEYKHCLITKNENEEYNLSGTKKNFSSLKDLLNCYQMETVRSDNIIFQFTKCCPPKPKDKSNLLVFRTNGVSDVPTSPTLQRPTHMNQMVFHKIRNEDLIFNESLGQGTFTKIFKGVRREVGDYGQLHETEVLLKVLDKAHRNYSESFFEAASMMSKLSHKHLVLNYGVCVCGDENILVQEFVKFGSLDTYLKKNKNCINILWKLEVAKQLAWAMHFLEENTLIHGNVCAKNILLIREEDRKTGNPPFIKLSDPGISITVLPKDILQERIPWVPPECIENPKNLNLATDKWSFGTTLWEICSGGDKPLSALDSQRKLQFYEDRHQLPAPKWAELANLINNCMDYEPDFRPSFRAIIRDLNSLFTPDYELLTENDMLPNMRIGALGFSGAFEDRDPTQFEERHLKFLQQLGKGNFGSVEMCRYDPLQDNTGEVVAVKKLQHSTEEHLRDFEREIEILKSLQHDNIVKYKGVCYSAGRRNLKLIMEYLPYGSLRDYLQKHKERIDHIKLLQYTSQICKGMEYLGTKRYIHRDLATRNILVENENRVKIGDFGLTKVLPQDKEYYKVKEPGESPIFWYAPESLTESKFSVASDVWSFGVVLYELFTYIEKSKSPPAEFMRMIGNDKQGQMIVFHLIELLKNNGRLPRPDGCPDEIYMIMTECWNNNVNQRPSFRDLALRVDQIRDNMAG
# Procedure, shortened: as §1
# JAK1 = biological target: T3, JAK1 (Homo sapiens, UniProt P23458); test: In vitro kinase activity experiment, JAK1; type: biochemical
# T3 construct: purchased Eurofins
# T3 sequence (P23458 whole entry): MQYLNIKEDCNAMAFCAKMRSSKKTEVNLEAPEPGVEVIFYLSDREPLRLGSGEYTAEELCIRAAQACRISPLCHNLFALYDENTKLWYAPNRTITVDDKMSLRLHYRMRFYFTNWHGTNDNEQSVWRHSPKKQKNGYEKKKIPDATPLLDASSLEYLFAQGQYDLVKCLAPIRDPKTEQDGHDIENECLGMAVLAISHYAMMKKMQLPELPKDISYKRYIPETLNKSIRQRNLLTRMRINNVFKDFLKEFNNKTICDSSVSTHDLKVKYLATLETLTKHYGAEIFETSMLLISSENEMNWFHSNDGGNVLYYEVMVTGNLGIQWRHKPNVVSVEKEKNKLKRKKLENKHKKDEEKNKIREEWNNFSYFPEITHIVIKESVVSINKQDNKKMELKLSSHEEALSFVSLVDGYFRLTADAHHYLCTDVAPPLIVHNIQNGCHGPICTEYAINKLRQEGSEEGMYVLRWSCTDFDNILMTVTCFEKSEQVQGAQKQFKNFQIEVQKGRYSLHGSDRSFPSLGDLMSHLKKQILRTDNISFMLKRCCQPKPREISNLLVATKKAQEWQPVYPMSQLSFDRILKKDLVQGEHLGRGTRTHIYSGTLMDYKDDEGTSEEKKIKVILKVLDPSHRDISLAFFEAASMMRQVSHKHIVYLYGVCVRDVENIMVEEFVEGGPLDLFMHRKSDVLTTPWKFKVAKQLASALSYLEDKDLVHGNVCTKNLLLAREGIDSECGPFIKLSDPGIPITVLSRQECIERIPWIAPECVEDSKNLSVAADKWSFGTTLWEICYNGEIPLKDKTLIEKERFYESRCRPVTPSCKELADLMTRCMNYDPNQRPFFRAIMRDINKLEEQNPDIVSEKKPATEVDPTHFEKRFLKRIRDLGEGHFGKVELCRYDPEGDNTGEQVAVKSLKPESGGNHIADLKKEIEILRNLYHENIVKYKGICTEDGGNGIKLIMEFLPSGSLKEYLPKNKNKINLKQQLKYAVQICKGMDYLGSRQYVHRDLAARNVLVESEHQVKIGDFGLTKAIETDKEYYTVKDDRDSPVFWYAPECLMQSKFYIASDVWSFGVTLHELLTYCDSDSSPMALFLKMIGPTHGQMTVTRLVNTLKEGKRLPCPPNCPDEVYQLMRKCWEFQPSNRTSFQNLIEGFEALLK
# Description: Buffer solution ([…], pH 7.0, 0.2 mm EDTA, 10 mM mncl2), kinase to be tested, substrate of kinase to be tested, 10 mM magnesium acetate and γ33P-ATP solution, and compounds with different concentrations were added to a reaction tube in turn, then MgATP was added to initiate the enzyme reaction process, and incubated at room temperature for 40 min. Then, the reaction was terminated with 5 μl of […], and 10 μl of the reaction solution was titrated onto the Filtermat A membrane, washed with 75 mM phosphate solution for three times, each time for 5 min., and then washed with methanol once. Finally, the Filtermat A membrane was dried and the scintillation count was carried out.
# MV4-11 cells = type: in vivo; conditions: for Tumor inhibition rate (%): MV4-11 model, oral, QD × 6
# Description: (§2) MV4-11 cells and SET-2 cells were used to establish a mouse xenograft model to investigate the efficacy. NOD/SCID immunocompromised mice (purchased from Beijing Huafukang Biotechnology Co., Ltd.) were received and acclimated to the environment until they were normalized in diet and activity. MV4-11 and SET-2 cells were routinely incubated and grew to 80% fusion degree. Then, the cells were collected and counted on a blood cell counting plate, with the cell concentration adjusted to 3×10^7 cells/mL. After the cells were collected, 100 μL of cell suspension was inoculated subcutaneously on the back of mice. When the tumor volume reached 100 mm^3, the drug administration was started. The dosage regimen was oral administration every day. […].
# SET-2 cells = type: in vivo; conditions: for Tumor inhibition rate (%): SET-2 model, oral
# Description: as §2
# [1] = tested on: Ba/F3-EpoR-JAK2V617F cells; test: Ba/F3-EpoR-JAK2V617F-driven malignant tumor mouse model; type: in vivo, Babl/c-nude mice; conditions: oral twice a day
# Description: Babl/c-nude mice (Beijing Huafukang Biotechnology Co., Ltd.) were received and acclimated to the environment until these mice were normalized in diet and activity, and the modeling began. Ba/F3-EpoR-JAK2V617F cells (State Key Laboratory of Biotherapy, Sichuan University) were routinely incubated and grew to 80% fusion degree. Then the cells were centrifuged at 1000 rpm for 3 min., collected, resuspended by PBS and counted by a cell counter; while the survival rate of the cells was calculated. Only when the proportion of living cells exceeds 90%, can the cells be used in the experiment, with the cell concentration adjusted to 1×10^7 cells/mL. After the cells were collected, the cell suspension was pre-cooled on ice. Each mouse was inoculated as per 1.0×10^6, and batch induction modeling was carried out.
# JAK2V617F = test: JAK2V617F-induced myelofibrosis mouse model; type: in vivo, BALB/c mice; conditions: 30 mg/Kg, oral twice a day, after 8 weeks of treatment
# Excerpt: JAK2 mutant JAK2V617F gene vector MSCV-JAK2V617F-GFP (Chengdu Wandao Biotechnology Development Co., Ltd.) and BALB/c mice (Jiangsu Jicui Yaokang Biotechnology Co., Ltd.) were provided as donors. The mouse bone marrow cells were sampled and infected with JAK2V617F virus, and the infected cells were reinfused into BALB/c recipient mice irradiated by X-rays through tail vein. Then, the JAK2V617F-positive myelofibrosis mouse model was induced. […] The administration route was oral administration twice a day, and the mice in the blank control group and the model group took the same volume of normal saline orally. […] Therefore, modifications or improvements made without departing from the spirit of the present invention are within the scope of protection of the present invention.
structure (smiles),measurement,setting,value
"Cc1cnc(Nc2ccc(N3CCC(N(C)CCO)CC3)c(F)c2)nc1-c1cnn(C(C)C)c1 [CLJ-44, 5-methyl-N-(3-fluoro-4-(4-N-hydroxyethyl-4-N-methylaminopiperidine-1-yl)phenyl)-4-(1-isopropyl-1H-pyrazole-4-yl) pyrimidine-2-amine]",IC50,FLT3,4 nM
same,inhibition at 0.5 µM,"FLT3; 40 min, read-out: Kinase activity @ 500 nM (%) FLT3",99%
same,Kinase activity @ 500 nM (%) JAK2,JAK2,100%
same,IC50,JAK1,37 nM
same,Tumor inhibition rate (%),MV4-11 cells; 30 mg/kg,58%
same,Tumor inhibition rate (%),MV4-11 cells; 60 mg/kg,93%
same,"tolerability, effect on body weight","MV4-11 cells; mouse, in vivo",well tolerated and has no adverse effect on body weight
same,Tumor inhibition rate (%),SET-2 cells; 30 mg/kg,66%
same,Tumor inhibition rate (%),SET-2 cells; 60 mg/kg,85%
same,"tolerability, effect on body weight","SET-2 cells; mouse, in vivo",well tolerated and has no adverse effect on body weight
same,inhibition of spleen growth,[1]; 7.5 mg/Kg,18.74%
same,inhibition of spleen growth,[1]; 15 mg/Kg,35.67%
same,inhibition of spleen growth,[1]; 30 mg/Kg,79.79%
same,inhibition of spleen growth,[1]; 45 mg/Kg,101.08%
same,spleen weight,[1]; 45 mg/Kg,restored to the weight of a normal mouse
same,inhibition of growth rate of spleen,JAK2V617F,96.73%
